What all share (experiment): Bacteria staining with TriPE-NT and PI, CLSM
Holding throughout (type): cell-based
Details in all cases: 10 min

Test [1] concerns K. pneumoniae. How it is done: (§1) FIG. 21B is a graph plotting stained percentages for E. coli, MDR E. coli, K. pneumoniae, MDR K. pneumoniae, S. epidermidis, MDR S. epidermidis, S. aureus, and MDR S. aureus.
(§2) FIG. 21C is a graph plotting percentage of dead bacteria stained by propidium iodine (PI) after the bacteria were incubated with 10 μM of TriPE-NT or PI for 10 min.
(§3) TriPE-NT: Ex=405 nm, Em=500-560 nm; PI: Ex=514, Em=600-700. The scale bar is equal to 5 μm.
(§4) To indicate the status of the bacteria after TriPE-NT treatment, the bacteria was incubated with commercial dead bacteria-staining fluorescent reagent propidium iodide (PI) and TriPE-NT at the same time. Thanks to the AIE characteristics and water solubility of TriPE-NT, there was almost no background fluorescence in the imaging field. E. coli and S. epidermidis, which emitted bright orange (TriPE-NT) or red (PI) fluorescence, are clearly visualized under confocal laser scanning microscope (CLSM) (FIG. 21A-C, 22-23). […] In comparison, relatively low percentage of Gram-negative bacteria were stained by TriPE-NT (e.g., 88.1±9.8% E. coli, 84.3±12.7% MDR E. coli, 47.9±7.7% K. pneumoniae and 35.8±4.9% MDR K. pneumoniae) (FIG. 21B, FIG. 22). […] By contrast, relatively low percentages of E. coli (22.1±12.2% E. coli) were co-stained by both TriPE-NT and PI (FIGS. 21A, C), which is also similar to other Gram-negative bacteria (15.3±3.7%, MDR E. coli, 8.8±3.2%, K. pneumoniae and 6.4±2.6% MDR K. pneumoniae) (FIGS. 21A & C, 22). The reason for this difference possibly is ascribed to the extra membrane of Gram-negative bacteria which is absent in Gram-positive bacteria. These observations also illustrated that both Gram-negative bacteria and Gram-positive bacteria are vulnerable to TriPE-NT treatment, the possible reason is that these bacteria with negatively charged membranes, could anchor, uptake, and aggregate the positively charged probe, which restricts the intramolecular motion of the probe and causes their fluorescence emission.

The test system of test [2] is MDR E. coli. On the procedure: as §1, §2, §3, §4
Test [3] deals with MDR K. pneumoniae. How it is done: as §1, §2, §3, §4

Molecules are shown by their SMILES.

As to `COc1ccc(C(=Cc2ccc(-c3ccc4c5c(cccc35)C(=O)N(CCCCn3c[n+](Cc5ccc(F)cc5F)cn3)C4=O)cc2)c2ccc(OC)cc2)cc1` [TriPE-NT], the “percentage of K. pneumoniae co-stained by TriPE-NT and PI (dead bacteria)” value in test [1] (10 μM TriPE-NT and PI) turned out to be 8.8±3.2%. Further, the “percentage of K. pneumoniae stained by TriPE-NT” value in test [1] (10 μM) is recorded as 47.9±7.7%. Moreover, the “percentage of MDR E. coli co-stained by TriPE-NT and PI (dead bacteria)” value in test [2] (10 μM TriPE-NT and PI) was found to be 15.3±3.7%. The “percentage of MDR E. coli stained by TriPE-NT” value in test [2] (10 μM) stood at 84.3±12.7%. In addition, the “percentage of MDR K. pneumoniae co-stained by TriPE-NT and PI (dead bacteria)” value in test [3] (10 μM TriPE-NT and PI) was determined as 6.4±2.6%. The “percentage of MDR K. pneumoniae stained by TriPE-NT” value in test [3] (10 μM) came out at 35.8±4.9%.

Values taken from US12691109B2, “Bifunctional aggregation-induced emission luminogen for monitoring and killing of multidrug-resistant bacteria” (The Hong Kong University of Science and Technology, priority 2018, dated 2026).
